Reference: patent US20260022142A1, “MACROCYCLIC IMMUNOMODULATORS” (Bristol-Myers Squibb Company, priority 2022, published 2026)
Bridge positions count the residues as written; N and C are the ends. Square brackets hold non-standard residues; d marks the D form. Peptide text beside a SMILES is read from it. * marks the point of attachment. ξ: configuration not given here. Phe(3-CF3) = N[C@@H](Cc1cccc(C(F)(F)F)c1)C(=O)O; Phe(4-COOH) = N[C@@H](Cc1ccc(C(=O)O)cc1)C(=O)O; Bip = N[C@@H](Cc1ccc(-c2ccccc2)cc1)C(=O)O; NH(CH2)14COOH = O=C(O)CCCCCCCCCCCCCCN*; Phe(3-Me) = Cc1cccc(C[C@H](N)C(=O)O)c1; Val(3-OH) = CC(C)(O)[C@H](N)C(=O)O; hArg = N=C(N)NCCCC[C@H](N)C(=O)O; 4Pal = N[C@@H](Cc1ccncc1)C(=O)O; Cha = N[C@@H](CC1CCCCC1)C(=O)O; Cit = NC(=O)NCCC[C@H](N)C(=O)O; dCha = N[C@H](CC1CCCCC1)C(=O)O; Thr(3ξ) = CC(O)[C@H](N)C(=O)O; hSer = N[C@@H](CCO)C(=O)O; Carboxymethyl = O=C(O)C*; Nle = CCCC[C@H](N)C(=O)O; Orn = NCCC[C@H](N)C(=O)O; Aun = NCCCCCCCCCCC(=O)O; Dab = NCC[C@H](N)C(=O)O; Dap = NC[C@H](N)C(=O)O; AEEA = NCCOCCOCC(=O)O

Molecular target: T1, PD-1/PD-L1 interaction (PE-labeled human PD-L1-Ig binding to Jurkat cell line over-expressing human PD-1) (Homo sapiens, UniProt Q15116)
T1 construct: expressed in transfected cells; host or cells: Jurkat
T1 sequence (Q15116 25-288): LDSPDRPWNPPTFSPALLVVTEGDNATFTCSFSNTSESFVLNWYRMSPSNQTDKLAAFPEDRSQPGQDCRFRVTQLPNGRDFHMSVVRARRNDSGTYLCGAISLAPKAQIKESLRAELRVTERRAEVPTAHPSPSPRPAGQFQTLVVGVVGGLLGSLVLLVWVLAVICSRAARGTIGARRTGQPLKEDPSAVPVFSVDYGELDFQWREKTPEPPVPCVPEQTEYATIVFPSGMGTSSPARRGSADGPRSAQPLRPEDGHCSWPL
Test: Jurkat-PD-1 Cell Binding High-Content Screening Assay (CBA)
Assay type: cell-based
Settings: Jurkat cell line over-expressing human PD-1; PE-labeled PD-L1-Ig 20 nM final; read-out: Jurkat hPD1-PDL1 IC50
In short: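 Jurkat cells over-expressing human PD-1 (8×10^3 per well, DMEM/10% FCS) preincubated with compound 2 h at 37° C, then PE-labeled human PD-L1-Ig (20 nM final) added for 1 h. Cells fixed with paraformaldehyde, Hoechst-stained, and bound fluorescence quantified by high-content imaging.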

| Structure (SMILES) | IC50 |
| --- | --- |
| CC[C@H](C)[C@@H]1NC(=O)[C@H](Cc2ccc(-c3ccccc3)cc2)NC(=O)[C@H](C(C)C)NC(=O)[C@H](Cc2cccc(C)c2)NC(=O)[C@H](CC(=O)O)NC(=O)[C@H](Cc2ccc(C(=O)O)cc2)NC(=O)[C@H](Cc2ccncc2)NC(=O)CSC[C@@H](C(=O)NCCOCCOCC(=O)N[C@@H](CCCN)C(=O)NCCCCCCCCCCC(=O)O)NC(=O)[C@H]([C@@H](C)O)NC(=O)[C@H](C(C)C)NC(=O)[C@H](CC2CCCCC2)NC(=O)[C@H](CCN)NC(=O)[C@@H](CC(C)C)NC(=O)[C@H](CCCN)NC1=O [Compound 1190] ({CH2CO}-[4Pal][Phe(4-COOH)]D[Phe(3-Me)]V[Bip]I[Orn][dL][Dab][Cha]VTC[AEEA][Orn][Aun]-OH; thioether N-14) | 24.8 nM |
| Cc1cccc(C[C@@H]2NC(=O)[C@H](CC(=O)O)NC(=O)[C@H](Cc3ccc(OCC(=O)O)cc3)NC(=O)[C@H](CCO)NC(=O)CSC[C@@H](C(=O)N[C@@H](CCN)C(=O)NCCCCCCCCCCC(=O)O)NC(=O)[C@H](CO)NC(=O)[C@H](C(C)(C)O)NC(=O)[C@H](CC3CCCCC3)NC(=O)[C@H](CCN)NC(=O)[C@@H](CC(C)C)NC(=O)[C@H](CCCN)NC(=O)[C@H](Cc3ccc(OCC(=O)O)cc3)NC(=O)[C@H](Cc3ccc(-c4ccccc4)cc3)NC(=O)[C@H](Cc3ccc(OCC(=O)O)cc3)NC2=O)c1 [Compound 2230] ({CH2CO}-[hSer]Y(Carboxymethyl)D[Phe(3-Me)]Y(Carboxymethyl)[Bip]Y(Carboxymethyl)[Orn][dL][Dab][Cha][Val(3-OH)]SC[Dab][Aun]-OH; thioether N-14) | 2.2 nM |
| CC(C)C[C@@H]1NC(=O)[C@H](Cc2c[nH]c3ccccc23)NC(=O)[C@H](CC(=O)O)NC(=O)[C@H](Cc2ccc(C(=O)O)cc2)NC(=O)[C@H](Cc2ccc(OCC(=O)O)cc2)NC(=O)CSC[C@@H](C(=O)N[C@@H](CCCN)C(=O)NCCCCCCCCCCC(=O)O)NC(=O)[C@H](CCCNC(N)=O)NC(=O)[C@H](C(C)C)NC(=O)[C@H](CC2CCCCC2)NC(=O)[C@H](CCN)NC(=O)[C@@H](CC(C)C)NC(=O)[C@H](CCCN)NC(=O)[C@H](Cc2ccc(O)cc2)NC(=O)[C@H](Cc2ccc(-c3ccccc3)cc2)NC1=O [Compound 1235] ({CH2CO}-Y(Carboxymethyl)[Phe(4-COOH)]DWL[Bip]Y[Orn][dL][Dab][Cha]V[Cit]C[Orn][Aun]-OH; thioether N-14) | 32.1 nM |
| CC(C)[C@@H]1NC(=O)[C@H](CC2CCCCC2)NC(=O)[C@H](CCN)NC(=O)[C@@H](CC2CCCCC2)NC(=O)[C@H](CCCN)NC(=O)[C@H](C(C)C)NC(=O)[C@H](Cc2ccc(-c3ccccc3)cc2)NC(=O)[C@H](C(C)C)NC(=O)[C@H](Cc2c[nH]c3ccccc23)NC(=O)[C@H](CC(=O)O)NC(=O)[C@H](Cc2ccc(OCC(=O)O)cc2)NC(=O)[C@H](CN)NC(=O)CSC[C@@H](C(=O)N[C@@H](CCN)C(=O)NCCOCCOCC(=O)NCCCCCCCCCCC(=O)O)NC(=O)[C@H](CCCCN)NC1=O [Compound 2679] ({CH2CO}-[Dap]Y(Carboxymethyl)DWV[Bip]V[Orn][dCha][Dab][Cha]VKC[Dab][AEEA][Aun]-OH; thioether N-14) | 26.9 nM |
| Cc1cccc(C[C@@H]2NC(=O)[C@H](CC(=O)O)NC(=O)[C@H](Cc3ccc(OCC(=O)O)cc3)NC(=O)[C@H](CN)NC(=O)CSC[C@@H](C(=O)NCCOCCOCC(=O)NCCCCCCCCCCC(=O)O)NC(=O)[C@H](CCCNC(=N)N)NC(=O)[C@H](C(C)C)NC(=O)[C@H](CC3CCCCC3)NC(=O)[C@H](CCN)NC(=O)[C@@H](CC(C)C)NC(=O)[C@H](CCCN)NC(=O)[C@H](C(C)C)NC(=O)[C@H](Cc3ccc(-c4ccccc4)cc3)NC(=O)[C@H](C(C)C)NC2=O)c1 [Compound 2568] ({CH2CO}-[Dap]Y(Carboxymethyl)D[Phe(3-Me)]V[Bip]V[Orn][dL][Dab][Cha]VRC[AEEA][Aun]-OH; thioether N-14) | 12.7 nM |

More lines, now with the values ahead:

| IC50 | Structure (SMILES) |
| --- | --- |
| 6.7 nM | Cc1cccc(C[C@@H]2NC(=O)[C@H](CC(=O)O)NC(=O)[C@H](Cc3ccc(OCC(=O)O)cc3)NC(=O)[C@H](CCN)NC(=O)CSC[C@@H](C(=O)N[C@@H](CCN)C(=O)NCCCCCCCCCCC(=O)O)NC(=O)[C@H](CO)NC(=O)[C@H](C(C)O)NC(=O)[C@H](CC3CCCCC3)NC(=O)[C@H](CCN)NC(=O)[C@@H](CC(C)C)NC(=O)[C@H](CCCN)NC(=O)[C@H](Cc3ccc(OCC(=O)O)cc3)NC(=O)[C@H](Cc3ccc(-c4ccccc4)cc3)NC(=O)[C@H](Cc3ccc(OCC(=O)O)cc3)NC2=O)c1 (stereo partly drawn) [Compound 3630] ({CH2CO}-[Dab]Y(Carboxymethyl)D[Phe(3-Me)]Y(Carboxymethyl)[Bip]Y(Carboxymethyl)[Orn][dL][Dab][Cha][Thr(3ξ)]SC[Dab][Aun]-OH; thioether N-14) |
| 1.7 nM | Cc1cccc(C[C@@H]2NC(=O)[C@H](CC(=O)O)NC(=O)[C@H](Cc3ccc(OCC(=O)O)cc3)NC(=O)[C@H](Cc3ccncc3)NC(=O)CSC[C@@H](C(=O)N[C@@H](CCN)C(=O)NCCOCCOCC(=O)NCCOCCOCC(=O)NCCCCCCCCCCC(=O)O)NC(=O)[C@H](Cc3cnc[nH]3)NC(=O)[C@H](C(C)(C)O)NC(=O)[C@H](CC3CCCCC3)NC(=O)[C@H](CCN)NC(=O)[C@@H](CC(C)C)NC(=O)[C@H](CCCN)NC(=O)[C@H](Cc3ccc(C(=O)O)cc3)NC(=O)[C@H](Cc3ccc(-c4ccccc4)cc3)NC(=O)[C@H](Cc3ccc(C(=O)O)cc3)NC2=O)c1 [Compound 3742] ({CH2CO}-[4Pal]Y(Carboxymethyl)D[Phe(3-Me)][Phe(4-COOH)][Bip][Phe(4-COOH)][Orn][dL][Dab][Cha][Val(3-OH)]HC[Dab][AEEA][AEEA][Aun]-OH; thioether N-14) |
| 21.2 nM | Cc1cccc(C[C@@H]2NC(=O)[C@H](CC(=O)O)NC(=O)[C@H](Cc3ccc(OCC(=O)O)cc3)NC(=O)[C@H](C(C)C)NC(=O)CSC[C@@H](C(=O)N[C@@H](CCCCN)C(=O)NCCCCCCCCCCC(=O)O)NC(=O)[C@H](C(C)O)NC(=O)[C@H](C(C)C)NC(=O)[C@H](CC3CCCCC3)NC(=O)[C@H](CCN)NC(=O)[C@@H](CC(C)C)NC(=O)[C@H](CCCN)NC(=O)[C@H](C(C)C)NC(=O)[C@H](Cc3ccc(-c4ccccc4)cc3)NC(=O)[C@H](C(C)C)NC2=O)c1 (stereo partly drawn) [Compound 3471] ({CH2CO}-VY(Carboxymethyl)D[Phe(3-Me)]V[Bip]V[Orn][dL][Dab][Cha]V[Thr(3ξ)]CK[Aun]-OH; thioether N-14) |
| 5.2 nM | Cc1cccc(C[C@@H]2NC(=O)[C@H](CC(=O)O)NC(=O)[C@H](Cc3ccc(OCC(=O)O)cc3)NC(=O)[C@H](C(C)O)NC(=O)CSC[C@@H](C(=O)N[C@H](CC(N)=O)C(=O)NCCCCCCCCCCC(=O)O)NC(=O)[C@H](C(C)O)NC(=O)[C@H](C(C)C)NC(=O)[C@H](CC3CCCCC3)NC(=O)[C@H](CCN)NC(=O)[C@@H](CC(C)C)NC(=O)[C@H](CCCN)NC(=O)[C@H](Cc3ccc(C(=O)O)cc3)NC(=O)[C@H](Cc3ccc(-c4ccccc4)cc3)NC(=O)[C@H](Cc3ccc(C(=O)O)cc3)NC2=O)c1 (stereo partly drawn) [Compound 3500] ({CH2CO}-[Thr(3ξ)]Y(Carboxymethyl)D[Phe(3-Me)][Phe(4-COOH)][Bip][Phe(4-COOH)][Orn][dL][Dab][Cha]V[Thr(3ξ)]C[dN][Aun]-OH; thioether N-14) |
| 75.7 nM | Cc1cccc(C[C@@H]2NC(=O)[C@H](CC(=O)O)NC(=O)[C@H](Cc3ccc(O)cc3)NC(=O)[C@H](CC(N)=O)NC(=O)CSC[C@@H](C(=O)N[C@@H](CCCN)C(=O)NCCCCCCCCCCC(=O)O)NC(=O)[C@@H](CCC(N)=O)NC(=O)[C@H](C(C)C)NC(=O)[C@H](CC(C)C)NC(=O)[C@H](CCN)NC(=O)[C@@H](CC(C)C)NC(=O)[C@H](CCCN)NC(=O)[C@H](CCCNC(N)=O)NC(=O)[C@H](Cc3ccc(-c4ccccc4)cc3)NC(=O)[C@H](C(C)C)NC2=O)c1 [Compound 2792] ({CH2CO}-NYD[Phe(3-Me)]V[Bip][Cit][Orn][dL][Dab]LV[dQ]C[Orn][Aun]-OH; thioether N-14) |
| 46.7 nM | CC(C)[C@@H]1NC(=O)[C@H](CC2CCCCC2)NC(=O)[C@H](CCN)NC(=O)[C@@H](C)NC(=O)[C@H](CCN)NC(=O)[C@H](C(C)C)NC(=O)[C@H](Cc2ccc(-c3ccccc3)cc2)NC(=O)[C@H](C(C)C)NC(=O)[C@H](Cc2c[nH]c3ccccc23)NC(=O)[C@H](CC(=O)O)NC(=O)[C@H](Cc2ccc(OCC(=O)O)cc2)NC(=O)[C@H](CCCCNC(=N)N)NC(=O)CSC[C@@H](C(=O)N[C@@H](CCN)C(=O)NCCOCCOCC(=O)NCCCCCCCCCCC(=O)O)NC(=O)[C@H](CCCN)NC1=O [Compound 3279] ({CH2CO}-[hArg]Y(Carboxymethyl)DWV[Bip]V[Dab][dA][Dab][Cha]V[Orn]C[Dab][AEEA][Aun]-OH; thioether N-14) |
| 430 nM | CCCC[C@@H]1NC(=O)CSC[C@@H](C(=O)N[C@@H](CCN)C(=O)NCCCCCCCCCCCCCCC(=O)O)NC(=O)[C@H](C(C)O)NC(=O)[C@H](C(C)(C)O)NC(=O)[C@H](CC2CCCCC2)NC(=O)[C@H](CCN)NC(=O)[C@@H](CC(C)C)NC(=O)[C@H](Cc2cnc[nH]2)NC(=O)[C@H](Cc2ccc(OCC(=O)O)cc2)NC(=O)[C@H](Cc2ccc(-c3ccccc3)cc2)NC(=O)[C@H](Cc2ccc(C(=O)O)cc2)NC(=O)[C@H](Cc2cccc(C(F)(F)F)c2)NC(=O)[C@H](CC(=O)O)NC(=O)[C@H](Cc2ccc(OCC(=O)O)cc2)NC1=O (stereo partly drawn) [Compound 3863] ({CH2CO}-[Nle]Y(Carboxymethyl)D[Phe(3-CF3)][Phe(4-COOH)][Bip]Y(Carboxymethyl)H[dL][Dab][Cha][Val(3-OH)][Thr(3ξ)]C[Dab]-{NH(CH2)14COOH}; thioether N-14) |
| 53.9 nM | Cc1cccc(C[C@@H]2NC(=O)[C@H](CC(=O)O)NC(=O)[C@H](Cc3ccc(OCC(=O)O)cc3)NC(=O)[C@H](CN)NC(=O)CSC[C@@H](C(=O)N[C@@H](CCN)C(=O)NCCCCCCCCCCC(=O)O)NC(=O)[C@@H](CC(N)=O)NC(=O)[C@H](C(C)C)NC(=O)[C@H](CC3CCCCC3)NC(=O)[C@H](CCN)NC(=O)[C@@H](CC(C)C)NC(=O)[C@H](CCCN)NC(=O)[C@H](Cc3ccc(O)cc3)NC(=O)[C@H](Cc3ccc(-c4ccccc4)cc3)NC(=O)[C@H](C(C)C)NC2=O)c1 [Compound 2754] ({CH2CO}-[Dap]Y(Carboxymethyl)D[Phe(3-Me)]V[Bip]Y[Orn][dL][Dab][Cha]V[dN]C[Dab][Aun]-OH; thioether N-14) |
